Results on 14 compounds are retold here after PubChem BioAssay AID212 (DTP/NCI, 2004).

Several values for one entry are separate records, joined by “and”; a condition that tells them apart may be missing. Equal values may be shown once. Inconclusive results are not listed.

The experiment concerns BDF1 mice, colon carcinoma 38 sc, T/C %. Description: NCI In Vivo Anticancer Drug Screen. Data for tumor model Colon Carcinoma 38 (subcutaneous) in B6D2F1 (BDF1) mice. An outline of the steps:
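Compound antitumor activity was assessed in mice carrying transplantable tumors. Survival or tumor size was recorded, and each value is the treated-group measurement divided by that of the vehicle-treated control group.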

Where [1] appears, read: endpoint: median tumor weight (est.), dose: 12.5 mg/kg/injection, schedule: Q07DX002 (ip), vehicle: saline with Tween-80, higher = larger tumour.
The mark [2] stands for this setting: endpoint: median tumor weight (est.), dose: 25.0 mg/kg/injection, schedule: Q07DX002 (ip), vehicle: saline with Tween-80, higher = larger tumour.
[3] abbreviates: endpoint: median tumor weight (est.), dose: 50.0 mg/kg/injection, schedule: Q07DX002 (ip), vehicle: saline with Tween-80, higher = larger tumour.
Setting [4] is: endpoint: median tumor weight (est.), dose: 6.25 mg/kg/injection, schedule: Q07DX002 (ip), vehicle: saline with Tween-80, higher = larger tumour.
Setting [5] is: endpoint: median tumor weight (est.), dose: 200.0 mg/kg/injection, schedule: Q07DX002 (ip), vehicle: saline with Tween-80, higher = larger tumour.
[6] abbreviates: endpoint: median tumor weight (est.), dose: 400.0 mg/kg/injection, schedule: Q07DX002 (ip), vehicle: saline with Tween-80, higher = larger tumour.
[7] abbreviates: endpoint: median tumor weight (est.), dose: 12.5 mg/kg/injection, schedule: Q07DX002 (ip), vehicle: saline, higher = larger tumour.
The mark [8] stands for this setting: endpoint: median tumor weight (est.), dose: 25.0 mg/kg/injection, schedule: Q07DX002 (ip), vehicle: saline, higher = larger tumour.
The mark [9] stands for this setting: endpoint: median tumor weight (est.), dose: 25.0 mg/kg/injection, schedule: Q07DX002 (ip), vehicle: Klucel (hydroxypropylcellulose) (HPC), higher = larger tumour.
The mark [10] stands for this setting: endpoint: median tumor weight (est.), dose: 50.0 mg/kg/injection, schedule: Q07DX002 (ip), vehicle: Klucel (hydroxypropylcellulose) (HPC), higher = larger tumour.
[11] abbreviates: endpoint: median tumor weight (est.), dose: 100.0 mg/kg/injection, schedule: Q07DX002 (ip), vehicle: Klucel (hydroxypropylcellulose) (HPC), higher = larger tumour.

Take `C=C1CCOC2(C(O)C(C)(O)CO)NC(=O)C1(O)NC2=O` (stereo not given): the T/C was 104 % of control (endpoint: median tumor weight (est.), dose: 225.0 mg/kg/injection, schedule: Q07DX002 (ip), vehicle: saline, higher = larger tumour); 74 % of control (endpoint: median tumor weight (est.), dose: 450.0 mg/kg/injection, schedule: Q07DX002 (ip), vehicle: saline, higher = larger tumour); 81 % of control (endpoint: median tumor weight (est.), dose: 900.0 mg/kg/injection, schedule: Q07DX002 (ip), vehicle: saline, higher = larger tumour); 46 % of control (endpoint: median tumor weight (est.), dose: 1800.0 mg/kg/injection, schedule: Q07DX002 (ip), vehicle: saline, higher = larger tumour).

In the case of `[Cl][Mn][Cl]`, the T/C is 118 % of control (endpoint: median tumor weight (est.), dose: 3.0 mg/kg/injection, schedule: Q07DX002 (ip), vehicle: saline, higher = larger tumour); 97 % of control (endpoint: median tumor weight (est.), dose: 4.0 mg/kg/injection, schedule: Q07DX002 (ip), vehicle: saline, higher = larger tumour); 92 % of control (endpoint: median tumor weight (est.), dose: 6.0 mg/kg/injection, schedule: Q07DX002 (ip), vehicle: saline, higher = larger tumour); 81 % of control (endpoint: median tumor weight (est.), dose: 8.0 mg/kg/injection, schedule: Q07DX002 (ip), vehicle: saline, higher = larger tumour); 119 % of control (endpoint: median tumor weight (est.), dose: 12.0 mg/kg/injection, schedule: Q07DX002 (ip), vehicle: saline, higher = larger tumour); 95 % of control and 96 % of control (endpoint: median tumor weight (est.), dose: 32.0 mg/kg/injection, schedule: Q07DX002 (ip), vehicle: saline, higher = larger tumour). The T/C is 119 % of control (endpoint: median tumor weight (est.), dose: 48.0 mg/kg/injection, schedule: Q07DX002 (ip), vehicle: saline, higher = larger tumour); 75 % of control (endpoint: median tumor weight (est.), dose: 64.0 mg/kg/injection, schedule: Q07DX002 (ip), vehicle: saline, higher = larger tumour); 115 % of control (endpoint: median tumor weight (est.), dose: 96.0 mg/kg/injection, schedule: Q07DX002 (ip), vehicle: saline, higher = larger tumour); 78 % of control (endpoint: median tumor weight (est.), dose: 128.0 mg/kg/injection, schedule: Q07DX002 (ip), vehicle: saline, higher = larger tumour).

Regarding `NC(C(=O)O)c1ccc(CBr)cc1` (stereo not given), the T/C reads like this: under setting [1], 151 % of control; under setting [2], 106 % of control; under setting [3], 182 % of control.

Consider `COC1=CC(=O)C(OC)=C(OC)C1=O`, for which the T/C under setting [4] is 115 % of control and 92 % of control; the T/C under setting [1] was 160 % of control and 185 % of control; the T/C under setting [3] is 62 % of control and 65 % of control; the T/C (endpoint: median tumor weight (est.), dose: 100.0 mg/kg/injection, schedule: Q07DX002 (ip), vehicle: saline with Tween-80, higher = larger tumour) was 152 % of control; the T/C under setting [5] was 189 % of control.

As for `C=CCNc1nc2c(s1)CCc1cc(OC)c(OC)cc1-2`, the T/C under setting [1] was 94 % of control; the T/C under setting [5] was 109 % of control and 111 % of control; the T/C under setting [6] was 73 % of control.

Take `O=C1OCC2(C(=O)O)C(=O)OCC12` (stereo not given): the T/C was 124 % of control (endpoint: median tumor weight (est.), dose: 3.12 mg/kg/injection, schedule: Q07DX002 (ip), vehicle: saline with Tween-80, higher = larger tumour); 87 % of control under setting [4]; 70 % of control and 86 % of control under setting [2]; 109 % of control under setting [3]; 158 % of control under setting [6].

For the compound `CC[As](=O)(O)CC`, the T/C was 101 % of control under setting [7]; 110 % of control under setting [8]; 81 % of control (endpoint: median tumor weight (est.), dose: 100.0 mg/kg/injection, schedule: Q07DX002 (ip), vehicle: saline, higher = larger tumour); 97 % of control (endpoint: median tumor weight (est.), dose: 200.0 mg/kg/injection, schedule: Q07DX002 (ip), vehicle: saline, higher = larger tumour); 110 % of control (endpoint: median tumor weight (est.), dose: 400.0 mg/kg/injection, schedule: Q07DX002 (ip), vehicle: saline, higher = larger tumour).

As for `COC1=NCN=C2SC=C(N)N=C12`, the T/C by setting is: (endpoint: median tumor weight (est.), dose: 6.25 mg/kg/injection, schedule: Q07DX002 (ip), vehicle: saline, higher = larger tumour) 102 % of control; under setting [7], 91 % of control; (endpoint: median tumor weight (est.), dose: 12.5 mg/kg/injection, schedule: Q07DX003 (ip), vehicle: saline, higher = larger tumour) 104 % of control; under setting [8], 101 % of control; (endpoint: median tumor weight (est.), dose: 50.0 mg/kg/injection, schedule: Q07DX002 (ip), vehicle: saline, higher = larger tumour) 85 % of control; (endpoint: median tumor weight (est.), dose: 50.0 mg/kg/injection, schedule: Q07DX003 (ip), vehicle: saline, higher = larger tumour) 151 % of control. In addition, the T/C (endpoint: median tumor weight (est.), dose: 100.0 mg/kg/injection, schedule: Q07DX003 (ip), vehicle: saline, higher = larger tumour) is 154 % of control.

As for `CC(=O)Oc1c[nH]c(=O)[nH]c1=O`, the T/C was 107 % of control (endpoint: median tumor weight (est.), dose: 50.0 mg/kg/injection, schedule: Q07DX002 (ip), vehicle: distilled water + Tween-80, higher = larger tumour); 108 % of control and 121 % of control (endpoint: median tumor weight (est.), dose: 100.0 mg/kg/injection, schedule: Q07DX002 (ip), vehicle: distilled water + Tween-80, higher = larger tumour); 124 % of control (endpoint: median tumor weight (est.), dose: 400.0 mg/kg/injection, schedule: Q07DX002 (ip), vehicle: distilled water + Tween-80, higher = larger tumour); 121 % of control and 102 % of control (endpoint: median tumor weight (est.), dose: 800.0 mg/kg/injection, schedule: Q07DX002 (ip), vehicle: distilled water + Tween-80, higher = larger tumour).

As to `Cn1cnc([N+](=O)[O-])c1[Se]c1nc(N)nc2nc[nH]c12`, the T/C by setting is: (endpoint: median tumor weight (est.), dose: 3.12 mg/kg/injection, schedule: Q07DX002 (ip), vehicle: water, higher = larger tumour) 62 % of control; (endpoint: median tumor weight (est.), dose: 6.25 mg/kg/injection, schedule: Q07DX002 (ip), vehicle: water, higher = larger tumour) 36 % of control; (endpoint: median tumor weight (est.), dose: 12.5 mg/kg/injection, schedule: Q07DX002 (ip), vehicle: water, higher = larger tumour) 87 % of control; (endpoint: median tumor weight (est.), dose: 25.0 mg/kg/injection, schedule: Q07DX002 (ip), vehicle: water, higher = larger tumour) 73 % of control; (endpoint: median tumor weight (est.), dose: 50.0 mg/kg/injection, schedule: Q07DX002 (ip), vehicle: water, higher = larger tumour) 54 % of control; (endpoint: median tumor weight (est.), dose: 100.0 mg/kg/injection, schedule: Q07DX002 (ip), vehicle: water, higher = larger tumour) 57 % of control.

As for `CC(=O)[C@]1(O)Cc2c(O)c3c(c(O)c2[C@@H](OC2CC(N)C(O)C(C)O2)C1)C(=O)c1c(O)cccc1C3=O` (stereo not given in full), the T/C by setting is: (endpoint: median survival time, dose: 0.7 mg/kg/injection, schedule: Q07DX003 (iv), vehicle: water, higher = longer survival) 87 % of control; (endpoint: median survival time, dose: 1.7 mg/kg/injection, schedule: Q07DX003 (iv), vehicle: water, higher = longer survival) 107 % of control; (endpoint: median survival time, dose: 2.7 mg/kg/injection, schedule: Q07DX003 (iv), vehicle: water, higher = longer survival) 176 % of control.

Take `O=C(O)CC(=O)O.[NH-]C1CCCCC1[NH-].[Pt+2]` (stereo not given): the T/C (endpoint: median tumor weight (est.), dose: 12.5 mg/kg/injection, schedule: Q07DX002 (ip), vehicle: dextrose, higher = larger tumour) is 84 % of control; the T/C (endpoint: median tumor weight (est.), dose: 20.0 mg/kg/injection, schedule: Q07DX003 (ip), vehicle: dextrose, higher = larger tumour) was 120 % of control; the T/C (endpoint: median tumor weight (est.), dose: 25.0 mg/kg/injection, schedule: Q07DX002 (ip), vehicle: dextrose, higher = larger tumour) is 55 % of control and 64 % of control; the T/C (endpoint: median tumor weight (est.), dose: 40.0 mg/kg/injection, schedule: Q07DX003 (ip), vehicle: dextrose, higher = larger tumour) was 48 % of control; the T/C (endpoint: median tumor weight (est.), dose: 50.0 mg/kg/injection, schedule: Q07DX002 (ip), vehicle: dextrose, higher = larger tumour) is 12 % of control and 35 % of control; the T/C (endpoint: median tumor weight (est.), dose: 80.0 mg/kg/injection, schedule: Q07DX003 (ip), vehicle: dextrose, higher = larger tumour) is 9 % of control.

Regarding `CC1=NNC(=O)C1CCO` (stereo not given), the T/C by setting is: under setting [9], 97 % of control; under setting [10], 95 % of control; under setting [11], 69 % of control; (endpoint: median tumor weight (est.), dose: 200.0 mg/kg/injection, schedule: Q07DX002 (ip), vehicle: Klucel (hydroxypropylcellulose) (HPC), higher = larger tumour) 72 % of control; (endpoint: median tumor weight (est.), dose: 400.0 mg/kg/injection, schedule: Q07DX002 (ip), vehicle: Klucel (hydroxypropylcellulose) (HPC), higher = larger tumour) 55 % of control; (endpoint: median tumor weight (est.), dose: 800.0 mg/kg/injection, schedule: Q07DX002 (ip), vehicle: Klucel (hydroxypropylcellulose) (HPC), higher = larger tumour) 77 % of control.

Turning to `N/C(=N\OC(=O)Nc1ccc(CSc2ccc(Cl)cc2)o1)c1ccccn1`, the T/C was 89 % of control under setting [9], 75 % of control under setting [10] and 90 % of control under setting [11].
